Measured values published in paper PMC10057445, “Interactions of N-Mannich Bases of Pyrrolo[3,4-c]pyrrole with Artificial Models of Cell Membranes and Plasma Proteins, Evaluation of Anti-Inflammatory and Antioxidant Activity” (Membranes, 2023).

Biological target: T1, human serum albumin (HSA) (Homo sapiens, UniProt P02768)
T1 construct: gene ALB; commercial powder (Sigma Aldrich), mature plasma protein
Assay: intrinsic fluorescence quenching, ex […] nm
Assay type: binding
Conditions: double-log; 297 K, pH 7.4 phosphate, no site marker

T1 sequence (P02768 25-609): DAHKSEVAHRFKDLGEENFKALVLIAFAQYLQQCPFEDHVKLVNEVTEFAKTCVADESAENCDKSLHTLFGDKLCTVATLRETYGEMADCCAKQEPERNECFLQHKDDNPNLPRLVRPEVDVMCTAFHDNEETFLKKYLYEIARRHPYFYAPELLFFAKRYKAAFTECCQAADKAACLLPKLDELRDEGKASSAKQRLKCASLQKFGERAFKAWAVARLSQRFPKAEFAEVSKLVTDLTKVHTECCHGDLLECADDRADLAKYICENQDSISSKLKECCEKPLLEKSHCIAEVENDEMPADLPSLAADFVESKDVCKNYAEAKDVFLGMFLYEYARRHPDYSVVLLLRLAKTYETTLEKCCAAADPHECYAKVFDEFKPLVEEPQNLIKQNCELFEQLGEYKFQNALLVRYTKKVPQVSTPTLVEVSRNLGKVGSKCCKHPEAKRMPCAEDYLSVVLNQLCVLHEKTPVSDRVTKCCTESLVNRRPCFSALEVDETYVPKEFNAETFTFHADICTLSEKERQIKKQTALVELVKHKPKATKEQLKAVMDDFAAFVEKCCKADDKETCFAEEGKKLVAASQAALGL

SMILES | Binding / Kb × 10^3 [dm^3.mol^-1]
Cc1c2c(c(C)n1-c1ccccc1)C(=O)N(CN1CCN(c3ccccc3)CC1)C2=O [7a] | 9.12 × 10^3 dm^3·mol^-1
Cc1c2c(c(C)n1-c1ccccc1)C(=O)N(CN1CCN(S(C)(=O)=O)CC1)C2=O [7l] | 1.66 × 10^3 dm^3·mol^-1
